From article PMC10126473 (Frontiers in Pharmacology, 2023)

Test: Parallel artificial membrane permeability assay (PAMPA)
Settings: pH 7.4
Experimental: The test samples (0.05 mM test article in pH 7.4 buffer with 0.5% DMSO) were added in the donor compartment and were stirred using the Gutbox technology (Pion Inc.) to reduce the aqueous boundary layer. The test article concentrations in the donor and acceptor compartments were measured using a UV plate reader (Nano Quant, Infinite 200 PRO, Tecan Inc., Männedorf, Switzerland).

O=C(Nc1ccc([N+](=O)[O-])cc1Cl)c1cc(Cl)ccc1OC(=O)N1CCNCC1 [PDN]
Papp at 0.05 mM: > 100 ×10⁻⁶ cm/s
